Like-named read-outs stand apart in the source and are kept apart here.
What was measured:
[1] = test system: methicillin-resistant Staphylococcus aureus subsp. aureus (MRSA) CCM 4750 (ATCC 43300); assay: microbe, parasite or virus in culture; type: cell-based; settings: read-out: MIC Methicillin-resistant Staphylococcus aureus subsp. aureus
[2] = test system: Candida parapsilosis CCM 8260 (ATCC 22019); assay: Antifungal microdilution broth (EUCAST); type: cell-based; settings: Lodderomyces parapsilosis, read-out: MIC Candida parapsilosis
[3] = test system: Candida krusei CCM 8271 (ATCC 6258); assay: Antifungal microdilution broth (EUCAST); type: cell-based; settings: Pichia kudriavzevii, read-out: MIC Candida krusei
[4] = test system: Staphylococcus epidermidis CCM 4418 (ATCC 12228); assay: Antibacterial microdilution broth (EUCAST); type: cell-based; settings: read-out: MIC Staphylococcus epidermidis
[5] = test system: Mycobacterium kansasii DSM 44,162 (ATCC 12478); assay: Antimycobacterial microdilution (resazurin) vs M. kansasii; type: cell-based; settings: read-out: MIC M. kansasii
[6] = test system: Mycobacterium tuberculosis H37Rv CNCTC My 331/88 (ATCC 27294); assay: Microplate Alamar Blue assay vs Mtb H37Rv; type: cell-based; settings: Middlebrook 7H9 pH 6.6, recalculated from µg/mL, read-out: MIC Mtb H37Rv
[7] = test system: Enterococcus faecalis CCM 4224 (ATCC 29212); assay: Antibacterial microdilution broth (EUCAST); type: cell-based; settings: read-out: MIC Enterococcus faecalis
[8] = test system: Acinetobacter baumannii DSM 30007 (ATCC 19606); assay: Antibacterial microdilution broth (EUCAST); type: cell-based; settings: read-out: MIC Acinetobacter baumannii
[9] = test system: Mycolicibacterium aurum DSM 43,999 (ATCC 23366); assay: Antimycobacterial microdilution (resazurin) vs M. aurum; type: cell-based; settings: Middlebrook 7H9, resazurin, read-out: MIC M. aurum
[10] = test system: Aspergillus fumigatus ATCC 204305; assay: Antifungal microdilution broth (EUCAST); type: cell-based; settings: Aspergillus fumigatus, ATCC204305, read-out: MIC Aspergillus fumigatus
[11] = test system: HepG2 cell line; assay: Cytotoxicity screening, CellTiter 96 assay; settings: for IC50: Homo sapiens, HepG2, 24 h, read-out: IC50 HepG2
[12] = test system: Candida tropicalis CCM 8264 (ATCC 750); assay: Antifungal microdilution broth (EUCAST); type: cell-based; settings: read-out: MIC Candida tropicalis
[13] = test system: Staphylococcus aureus subsp. aureus CCM 4223 (ATCC 29213); assay: Antibacterial microdilution broth (EUCAST); type: cell-based; settings: read-out: MIC Staphylococcus aureus subsp. aureus
[14] = test system: Aspergillus flavus CCM 8363; assay: Antifungal microdilution broth (EUCAST); type: cell-based; settings: Aspergillus flavus, CCM8363, read-out: MIC Aspergillus flavus
[15] = test system: Klebsiella pneumoniae CCM 4415 (ATCC 10031); assay: Antibacterial microdilution broth (EUCAST); type: cell-based; settings: Klebsiella pneumoniae, read-out: MIC Klebsiella pneumoniae
[16] = test system: Lichtheimia corymbifera CCM 8077; assay: Antifungal microdilution broth (EUCAST); type: cell-based; settings: Lichtheimia corymbifera, CCM8077, read-out: MIC Lichtheimia corymbifera
[17] = test system: Mycobacterium avium DSM 44,156 (ATCC 25291); assay: Antimycobacterial microdilution (resazurin) vs M. avium; type: cell-based; settings: Mycobacterium avium, Middlebrook 7H9, resazurin; read-out: MIC M. avium
[18] = test system: Escherichia coli CCM 3954 (ATCC 25922); assay: Antibacterial microdilution broth (EUCAST); type: cell-based; settings: Escherichia coli, read-out: MIC Escherichia coli
[19] = test system: Trichophyton interdigitale CCM 8377 (ATCC 9533); assay: Antifungal microdilution broth (EUCAST); type: cell-based; settings: Trichophyton interdigitale, read-out: MIC Trichophyton interdigitale
[20] = test system: Pseudomonas aeruginosa CCM 3955 (ATCC 27853); assay: Antibacterial microdilution broth (EUCAST); type: cell-based; settings: read-out: MIC Pseudomonas aeruginosa
[21] = test system: Candida albicans CCM 8320 (ATCC 24433); assay: Antifungal microdilution broth (EUCAST); type: cell-based; settings: Candida albicans, read-out: MIC Candida albicans
[22] = test system: Mycolicibacterium smegmatis DSM 43,465 (ATCC 607); assay: Antimycobacterial microdilution (resazurin) vs M. smegmatis; type: cell-based; settings: Middlebrook 7H9, resazurin, read-out: MIC M. smeg.
[23] = test system: Mycobacterium tuberculosis H37Ra ITM-M006710 (ATCC 9431); assay: Antimycobacterial microdilution (resazurin) vs Mtb H37Ra; type: cell-based; settings: Middlebrook 7H9, resazurin, recalculated from µg/mL, read-out: MIC Mtb H37Ra
[24] = Mycobacterium tuberculosis, pH 6.6, MABA

O=C(Nc1ccc2c(c1)B(O)OC2)c1cnccn1 [Compound 1, N-(1-hydroxy-1,3-dihydrobenzo[c][1,2]oxaborol-6-yl)pyrazine-2-carboxamide]
261.3 to 262.3 °C: melting point
49 µM: MIC [6, 24]
15.3 µM: MIC [9]
30.6 µM: MIC ([5]; Middlebrook 7H9, resazurin) | MIC [22]
123 µM: MIC [17] | MIC [23]
> 500 µM: MIC ([2]; 24h incubation) | MIC ([2]; 48h incubation) | MIC ([3]; 24h incubation) | MIC ([3]; 48h incubation) | MIC ([7]; 24h incubation) | MIC ([7]; 48h incubation) | MIC ([8]; 24h incubation) | MIC ([8]; 48h incubation) | MIC ([10]; 24h incubation) | MIC ([10]; 48h incubation) | MIC ([12]; 24h incubation) | MIC ([12]; 48h incubation) | MIC ([14]; 24h incubation) | MIC ([14]; 48h incubation) | MIC ([15]; 24h incubation) | MIC ([15]; 48h incubation) | MIC ([16]; 24h incubation) | MIC ([16]; 48h incubation) | MIC ([18]; 24h incubation) | MIC ([18]; 48h incubation) | MIC ([19]; 72h incubation) | MIC ([19]; 120h incubation) | MIC ([20]; 24h incubation) | MIC ([20]; 48h incubation) | MIC ([21]; 24h incubation) | MIC ([21]; 48h incubation)
250 µM: MIC ([13]; 24h incubation) | MIC ([13]; 48h incubation)
500 µM: MIC ([1]; 24 h) | MIC ([1]; 48 h) | MIC ([4]; 24h incubation) | MIC ([4]; 48h incubation)
> 1 mM: IC50 [11]

O=C(Nc1ccc2c(c1)B(O)OC2)c1ccc(O)nc1 [Compound 13, 6-hydroxy-N-(1-hydroxy-1,3-dihydrobenzo[c][1,2]oxaborol-6-yl)nicotinamide]
116 µM: MIC ([5]; Middlebrook 7H9, resazurin) | MIC [9] | MIC [22]
> 370 µM: MIC [6, 24]
304.8 to 306.9 °C: melting point
> 500 µM: MIC ([1]; 24 h) | MIC ([1]; 48 h) | MIC ([2]; 24h incubation) | MIC ([2]; 48h incubation) | MIC ([3]; 24h incubation) | MIC ([3]; 48h incubation) | MIC ([4]; 24h incubation) | MIC ([4]; 48h incubation) | MIC ([7]; 24h incubation) | MIC ([7]; 48h incubation) | MIC ([8]; 24h incubation) | MIC ([8]; 48h incubation) | MIC ([10]; 24h incubation) | MIC ([10]; 48h incubation) | MIC ([12]; 24h incubation) | MIC ([12]; 48h incubation) | MIC ([13]; 24h incubation) | MIC ([13]; 48h incubation) | MIC ([14]; 24h incubation) | MIC ([14]; 48h incubation) | MIC ([15]; 24h incubation) | MIC ([15]; 48h incubation) | MIC ([16]; 24h incubation) | MIC ([16]; 48h incubation) | MIC ([18]; 24h incubation) | MIC ([18]; 48h incubation) | MIC ([19]; 72h incubation) | MIC ([19]; 120h incubation) | MIC ([20]; 24h incubation) | MIC ([20]; 48h incubation) | MIC ([21]; 24h incubation) | MIC ([21]; 48h incubation)
463 µM: MIC [17] | MIC [23]
> 1 mM: IC50 [11]
>370.30 µM: MIC ([6]; MABA)

O=C(Nc1ccc2c(c1)B(O)OC2)c1ccc(C(F)(F)F)nc1 [Compound 12, N-(1-hydroxy-1,3-dihydrobenzo[c][1,2]oxaborol-6-yl)-6-(trifluoromethyl)nicotinamide]
24.2 µM: MIC [22]
> 0.25 mM: IC50 [11]
227.3 to 229.4 °C: melting point
155 µM: MIC [6, 24]
12.1 µM: MIC [9]
388 µM: MIC [17]
non-toxic: toxicity to HepG2 up to highest tested concentration ([11]; tested up to 500 µM (2, 3), 250 µM (12, 17), 100 µM (6, 7, 11) because of solubility)
> 500 µM: MIC ([1]; 24 h) | MIC ([1]; 48 h) | MIC ([2]; 24h incubation) | MIC ([2]; 48h incubation) | MIC ([3]; 24h incubation) | MIC ([3]; 48h incubation) | MIC ([4]; 24h incubation) | MIC ([4]; 48h incubation) | MIC ([7]; 24h incubation) | MIC ([7]; 48h incubation) | MIC ([8]; 24h incubation) | MIC ([8]; 48h incubation) | MIC ([10]; 24h incubation) | MIC ([10]; 48h incubation) | MIC ([12]; 24h incubation) | MIC ([12]; 48h incubation) | MIC ([13]; 24h incubation) | MIC ([13]; 48h incubation) | MIC ([14]; 24h incubation) | MIC ([14]; 48h incubation) | MIC ([15]; 24h incubation) | MIC ([15]; 48h incubation) | MIC ([16]; 24h incubation) | MIC ([16]; 48h incubation) | MIC ([18]; 24h incubation) | MIC ([18]; 48h incubation) | MIC ([19]; 72h incubation) | MIC ([19]; 120h incubation) | MIC ([20]; 24h incubation) | MIC ([20]; 48h incubation) | MIC ([21]; 24h incubation) | MIC ([21]; 48h incubation)
194 µM: MIC [5] | MIC [23]

Reference: publication PMC9917560, “Design, Synthesis and Antimicrobial Evaluation of New N-(1-Hydroxy-1,3-dihydrobenzo[c][1,2]oxaborol-6-yl)(hetero)aryl-2-carboxamides as Potential Inhibitors of Mycobacterial Leucyl-tRNA Synthetase” (International Journal of Molecular Sciences, 2023)
